Literature values in patent US11235023B2, “Beta-hairpin peptidomimetic with elastase inhibitory activity and aerosol dosage forms thereof” (POLYPHOR AG, priority 2016, dated 2022).

Columns and labels:
[1] = tested on: elastase; conditions: nasal instillation, CD-1 mice; cited from earlier work
[2] = molecular target: T1, neutrophil elastase (Mus musculus, UniProt Q3UP87); conditions: mouse model of neutrophil allergen challenge; cited from earlier work
T1 sequence (Q3UP87 27-265): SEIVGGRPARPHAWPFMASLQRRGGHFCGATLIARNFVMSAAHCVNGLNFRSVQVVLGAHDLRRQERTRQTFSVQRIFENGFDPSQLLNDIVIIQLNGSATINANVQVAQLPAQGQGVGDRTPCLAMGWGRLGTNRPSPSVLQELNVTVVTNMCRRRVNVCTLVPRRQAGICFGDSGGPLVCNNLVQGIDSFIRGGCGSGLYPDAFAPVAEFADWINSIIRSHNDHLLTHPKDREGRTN

Row | Compound | Protection against elastase-mediated injury [1] | Effect on airway hyperresponsiveness and inflammation [2]
1 | rhalpha1PI: recombinant form of the elastase inhibitor alpha-1-proteinase inhibitor (alpha1PI) | highly protective | –
2 | CC(C)(C)C(=O)Oc1ccc(S(=O)(=O)Nc2ccccc2C(=O)NCC(=O)O)cc1 [sivelelstat] | – | attenuates airway hyperresponsiveness and inflammation
